In BindingDB's records for doi:10.1021/jm00022a004 (H. Lundbeck, 1995):

Biological target: 5-hydroxytryptamine receptor 2A (Rattus norvegicus, UniProt P14842)
Test: Binding affinity for 5-hydroxytryptamine 2A receptor, activity is expressed as IC50 values.

Sequence of 5-hydroxytryptamine receptor 2A (P14842 whole entry): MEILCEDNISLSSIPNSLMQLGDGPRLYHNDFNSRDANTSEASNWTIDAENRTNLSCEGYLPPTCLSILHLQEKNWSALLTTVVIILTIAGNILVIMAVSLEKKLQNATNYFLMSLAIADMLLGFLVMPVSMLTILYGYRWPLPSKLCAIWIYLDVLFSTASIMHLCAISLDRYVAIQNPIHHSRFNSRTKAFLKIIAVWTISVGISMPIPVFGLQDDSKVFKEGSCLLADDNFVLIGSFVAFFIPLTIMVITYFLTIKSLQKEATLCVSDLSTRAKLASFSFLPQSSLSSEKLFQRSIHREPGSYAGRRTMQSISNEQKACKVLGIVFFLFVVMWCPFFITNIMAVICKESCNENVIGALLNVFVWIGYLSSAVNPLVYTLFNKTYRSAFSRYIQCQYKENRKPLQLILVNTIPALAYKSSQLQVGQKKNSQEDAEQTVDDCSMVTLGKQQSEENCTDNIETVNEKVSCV

## CC1(C)CN(C2CC(c3ccc(F)cc3)c3ccc(Cl)cc32)CCN1 (stereo unspecified) [1-[6-Chloro-3-(4-fluoro-phenyl)-indan-1-yl]-3,3-dimethyl-piperazine]
  IC50: 3.2 nM
